In patent publication US20250129070A1, “BIFUNCTIONAL ANDROGEN RECEPTOR COMPOUNDS” (priority 2023, published 2025) one finds IC50 and EC50 data, which are given here for 13 molecules.

Common to all, as to assay type: cell-based
For one assay, the system named is HEK-293 cells. Kind of assay: HEK-293 growth inhibition assay. Conditions: 3 days, CTG. The method in brief: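 HEK-293 cells plated 24 hours before compound treatment, then exposed for 3 days at 37°C/5% CO2. Viability by CellTiter-Glo luminescence after 20 minutes at room temperature. IC50 from RLU versus concentration via 4-parameter logistic nonlinear regression.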

The subject of a further assay is VCaP cells. Description: VCaP growth inhibition assay. Conditions: 30 pM R1881, 9 days, CTG. The gist of the method: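 VCaP cells in phenol red-free DMEM/5% CSS, pre-incubated 72 h, then stimulated with R1881 (final 30 pM) and treated with 1:5 serial dilutions (final 100 nM to 10 fM) for 9 days at 37 °C. Viability by CellTiter-Glo luminescence; IC50 from 4-parameter logistic fit of RLU vs concentration.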

Another assay concerns AR / CBP ternary complex. Kind of assay: Ternary complex formation assay (sandwich ELISA, AR capture / CBP detection) in VCaP cell lysates. As to conditions: 1.5 hours treatment, sandwich ELISA (AR capture, CBP or p300 detection). The gist of the method: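 VCaP cells (50K/well, 5% charcoal-stripped FBS, ≥3 days) treated with bifunctional compound for 1.5 h, then lysed 30 min at 4 °C. AR captured on anti-AR (AR 441) plates; bound CBP or p300 detected by rabbit mAb plus HRP secondary. QuantaRed chemifluorescence read at ex 570/em 585, immediately and at 5 and 15 min.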

For `CC(=O)N1CCc2c(c(-c3cccc4cc(-c5ccc(C(=O)NCc6ncc(C(=O)NC7C(C)(C)C(Oc8ccc(C#N)c(Cl)c8)C7(C)C)cn6)nc5)ncc34)nn2C2CCOCC2)C1` (stereo not drawn) [Compound 79, 2-[[[5-[8-(5-acetyl-1-tetrahydropyran-4-yl-6,7-dihydro-4H-pyrazolo[4,3-c]pyridin-3-yl)-3-isoquinolyl]pyridine-2-carbonyl]amino]methyl]-N-[3-(3-chloro-4-cyano-phenoxy)-2,2,4,4-tetramethyl-cyclobutyl]pyrimidine-5-carboxamide], the IC50 is more than 10000 nM with HEK-293 cells and 0.1 to 1 nM with VCaP cells. In the assay with AR / CBP ternary complex, this molecule registered an EC50 of less than 1 nM.

For the molecule `CC(=O)N1CCc2c(c(-c3cccc4cc(-c5cnc(CCN(C)c6ncc(C(=O)NC7C(C)(C)C(Oc8ccc(C#N)c(Cl)c8)C7(C)C)cn6)nc5)ncc34)nn2C2CCOCC2)C1` (stereo not drawn) [Compound 74, 2-[2-[5-[8-(5-acetyl-1-tetrahydropyran-4-yl-6,7-dihydro-4H-pyrazolo[4,3-c]pyridin-3-yl)-3-isoquinolyl]pyrimidin-2-yl]ethyl-methyl-amino]-N-[3-(3-chloro-4-cyano-phenoxy)-2,2,4,4-tetramethyl-cyclobutyl]pyrimidine-5-carboxamide], the IC50 is more than 10000 nM with HEK-293 cells and 1 to 100 nM in the assay on VCaP cells. This molecule had an EC50 with AR / CBP ternary complex of less than 1 nM.

On to `C[C@@H]1CC(=O)Nc2cccc(-c3ccc4c(c3)c(C3CC3)nn4CCCN3CCN(c4ncc(C(=O)NC5C(C)(C)C(Oc6ccc(C#N)c(Cl)c6)C5(C)C)cn4)CC3)c2N1` (stereo partly drawn) [Compound 59, N-[3-(3-chloro-4-cyano-phenoxy)-2,2,4,4-tetramethyl-cyclobutyl]-2-[4-[3-[3-cyclopropyl-5-[(4R)-4-methyl-2-oxo-1,3,4,5-tetrahydro-1,5-benzodiazepin-6-yl]indazol-1-yl]propyl]piperazin-1-yl]pyrimidine-5-carboxamide], for which the IC50 in the assay with HEK-293 cells is more than 10000 nM; in the assay with VCaP cells it was more than 100 nM. Besides, the EC50 in the assay with AR / CBP ternary complex is more than 100 nM.

Take `CC(=O)N1CCc2c(c(N3CCCc4cc(-c5cnn(C)c5)c(C(F)F)cc43)nn2C2CCN(C(=O)CC3CCN(c4ncc(C(=O)NC5C(C)(C)C(Oc6ccc(C#N)c(Cl)c6)C5(C)C)cn4)CC3)CC2)C1` (stereo not drawn) [Compound 172, 2-[4-[2-[4-[5-acetyl-3-[7-(difluoromethyl)-6-(1-methylpyrazol-4-yl)-3,4-dihydro-2H-quinolin-1-yl]-6,7-dihydro-4H-pyrazolo[4,3-c]pyridin-1-yl]-1-piperidyl]-2-oxo-ethyl]-1-piperidyl]-N-[3-(3-chloro-4-cyano-phenoxy)-2,2,4,4-tetramethyl-cyclobutyl]pyrimidine-5-carboxamide]: the IC50 with HEK-293 cells is more than 10000 nM; in the assay on VCaP cells it was not above 0.1 nM. Further, the EC50 in the assay on AR / CBP ternary complex was less than 1 nM.

For the molecule `CC(=O)N1CCc2c(c(N3CCCc4cc(-c5cnn(C)c5)c(C(F)F)cc43)nn2C2CCN(CC3CN(c4ncc(C(=O)NC5C(C)(C)C(Oc6ccc(C#N)c(Cl)c6)C5(C)C)cn4)C3)CC2)C1` (stereo not drawn) [Compound 20, 2-[3-[[4-[5-acetyl-3-[7-(difluoromethyl)-6-(1-methylpyrazol-4-yl)-3,4-dihydro-2H-quinolin-1-yl]-6,7-dihydro-4H-pyrazolo[4,3-c]pyridin-1-yl]-1-piperidyl]methyl]azetidin-1-yl]-N-[3-(3-chloro-4-cyano-phenoxy)-2,2,4,4-tetramethyl-cyclobutyl]pyrimidine-5-carboxamide], the IC50 in the assay with HEK-293 cells was more than 10000 nM; with VCaP cells it was not above 0.1 nM. In the assay with AR / CBP ternary complex, this molecule yielded an EC50 of less than 1 nM.

Take `CNC(=O)N1CCc2c(c(N3CCCc4cc(-c5cnn(C)c5)c(C(F)F)cc43)nn2C2CCN(C(=O)CC3CCN(c4ncc(C(=O)NC5C(C)(C)C(Oc6ccc(C#N)c(Cl)c6)C5(C)C)cn4)CC3)CC2)C1` (stereo not drawn) [Compound 101, 1-[1-[2-[1-[5-[[3-(3-chloro-4-cyano-phenoxy)-2,2,4,4-tetramethyl-cyclobutyl]carbamoyl]pyrimidin-2-yl]-4-piperidyl]acetyl]-4-piperidyl]-3-[7-(difluoromethyl)-6-(1-methylpyrazol-4-yl)-3,4-dihydro-2H-quinolin-1-yl]-N-methyl-6,7-dihydro-4H-pyrazolo[4,3-c]pyridine-5-carboxamide]: the IC50 with HEK-293 cells is more than 10000 nM; in the assay on VCaP cells, not above 0.1 nM. In the assay with AR / CBP ternary complex, this molecule yielded an EC50 of less than 1 nM.

`CC(=O)N1CCc2c(c(N3CCCc4cc(-c5cnn(C)c5)c(C(F)F)cc43)nn2C2CCN(C(=O)CN3CCN(c4ncc(C(=O)NC5C(C)(C)C(Oc6ccc(C#N)c(Cl)c6)C5(C)C)cn4)CC3)CC2)C1` (stereo not drawn) [Compound 96, 2-[4-[2-[4-[5-acetyl-3-[7-(difluoromethyl)-6-(1-methylpyrazol-4-yl)-3,4-dihydro-2H-quinolin-1-yl]-6,7-dihydro-4H-pyrazolo[4,3-c]pyridin-1-yl]-1-piperidyl]-2-oxo-ethyl]piperazin-1-yl]-N-[3-(3-chloro-4-cyano-phenoxy)-2,2,4,4-tetramethyl-cyclobutyl]pyrimidine-5-carboxamide]: the IC50 with HEK-293 cells is more than 10000 nM; with VCaP cells, not above 0.1 nM. In the assay on AR / CBP ternary complex, this molecule gave an EC50 of less than 1 nM.

For `CNC(=O)N1CCc2c(c(N3CCCc4cc(-c5cnn(C)c5)c(C(F)F)cc43)nn2C2CCN(C(=O)COCCC3CCN(c4ncc(C(=O)NC5C(C)(C)C(Oc6ccc(C#N)c(Cl)c6)C5(C)C)cn4)CC3)CC2)C1` (stereo not drawn) [Compound 99, 1-[1-[2-[2-[1-[5-[[3-(3-chloro-4-cyano-phenoxy)-2,2,4,4-tetramethyl-cyclobutyl]carbamoyl]pyrimidin-2-yl]-4-piperidyl]ethoxy]acetyl]-4-piperidyl]-3-[7-(difluoromethyl)-6-(1-methylpyrazol-4-yl)-3,4-dihydro-2H-quinolin-1-yl]-N-methyl-6,7-dihydro-4H-pyrazolo[4,3-c]pyridine-5-carboxamide], the IC50 with HEK-293 cells is more than 10000 nM; with VCaP cells it was not above 0.1 nM. In the assay on AR / CBP ternary complex, this molecule showed an EC50 of less than 1 nM.

As for `CC(=O)N1CCc2c(c(N3CCCc4cc(-c5cnn(C)c5)c(C(F)F)cc43)nn2C2CCN(C3CCN(c4ncc(C(=O)NC5C(C)(C)C(Oc6ccc(C#N)c(Cl)c6)C5(C)C)cn4)CC3)CC2)C1` (stereo not drawn) [Compound 85, 2-[4-[4-[5-acetyl-3-[7-(difluoromethyl)-6-(1-methylpyrazol-4-yl)-3,4-dihydro-2H-quinolin-1-yl]-6,7-dihydro-4H-pyrazolo[4,3-c]pyridin-1-yl]-1-piperidyl]-1-piperidyl]-N-[3-(3-chloro-4-cyano-phenoxy)-2,2,4,4-tetramethyl-cyclobutyl]pyrimidine-5-carboxamide], the IC50 is more than 10000 nM in the assay on HEK-293 cells and 0.1 to 1 nM in the assay with VCaP cells. In the assay with AR / CBP ternary complex, this molecule had an EC50 of less than 1 nM.

As to `CNC(=O)N1CCc2c(c(N3CCCc4cc(-c5cnn(C)c5)c(C(F)F)cc43)nn2C2CCN(C(=O)CCN3CCN(c4ncc(C(=O)NC5C(C)(C)C(Oc6ccc(C#N)c(Cl)c6)C5(C)C)cn4)CC3)CC2)C1` (stereo not drawn) [Compound 108, 1-[1-[3-[4-[5-[[3-(3-chloro-4-cyano-phenoxy)-2,2,4,4-tetramethyl-cyclobutyl]carbamoyl]pyrimidin-2-yl]piperazin-1-yl]propanoyl]-4-piperidyl]-3-[7-(difluoromethyl)-6-(1-methylpyrazol-4-yl)-3,4-dihydro-2H-quinolin-1-yl]-N-methyl-6,7-dihydro-4H-pyrazolo[4,3-c]pyridine-5-carboxamide], the IC50 with HEK-293 cells was more than 10000 nM; in the assay on VCaP cells, not above 0.1 nM. In the assay on AR / CBP ternary complex, this molecule had an EC50 of less than 1 nM.

On to `CC(=O)N1CCc2c(c(N3CCCc4cc(-c5cnn(C)c5)c(C(F)F)cc43)nn2C2CCN(CC3CCN(c4ncc(C(=O)NC5C(C)(C)C(Oc6ccc(C#N)c(Cl)c6)C5(C)C)cn4)CC3)CC2)C1` (stereo not drawn) [Compound 84, 2-[4-[[4-[5-acetyl-3-[7-(difluoromethyl)-6-(1-methylpyrazol-4-yl)-3,4-dihydro-2H-quinolin-1-yl]-6,7-dihydro-4H-pyrazolo[4,3-c]pyridin-1-yl]-1-piperidyl]methyl]-1-piperidyl]-N-[3-(3-chloro-4-cyano-phenoxy)-2,2,4,4-tetramethyl-cyclobutyl]pyrimidine-5-carboxamide], for which the values for the IC50 with HEK-293 cells and in the assay on VCaP cells were more than 10000 nM and not above 0.1 nM, respectively. Further, the EC50 with AR / CBP ternary complex is less than 1 nM.

As to `CNC(=O)N1CCc2c(c(N3CCCc4cc(-c5cnn(C)c5)c(C(F)F)cc43)nn2C2CCN(C(=O)COCCOCC3CCN(c4ncc(C(=O)NC5C(C)(C)C(Oc6ccc(C#N)c(Cl)c6)C5(C)C)cn4)CC3)CC2)C1` (stereo not drawn) [Compound 104, 1-[1-[2-[2-[[1-[5-[[3-(3-chloro-4-cyano-phenoxy)-2,2,4,4-tetramethyl-cyclobutyl]carbamoyl]pyrimidin-2-yl]-4-piperidyl]methoxy]ethoxy]acetyl]-4-piperidyl]-3-[7-(difluoromethyl)-6-(1-methylpyrazol-4-yl)-3,4-dihydro-2H-quinolin-1-yl]-N-methyl-6,7-dihydro-4H-pyrazolo[4,3-c]pyridine-5-carboxamide], the IC50 with HEK-293 cells was more than 10000 nM; in the assay on VCaP cells, 0.1 to 1 nM. The molecule further showed an EC50 in the assay with AR / CBP ternary complex of less than 1 nM.

For the molecule `COc1cc(OC2C(C)(C)C(NC(=O)c3ccc(N4CC5(CCC(N6CCC(n7nc(N8CCCc9cc(-c%10cnn(C)c%10)c(C(F)F)cc98)c8c7CCN(C(C)=O)C8)CC6)CC5)C4)cc3)C2(C)C)ccc1C#N` (stereo not drawn) [Compound 273, 4-[7-[4-[5-acetyl-3-[7-(difluoromethyl)-6-(1-methylpyrazol-4-yl)-3,4-dihydro-2H-quinolin-1-yl]-6,7-dihydro-4H-pyrazolo[4,3-c]pyridin-1-yl]-1-piperidyl]-2-azaspiro[3.5]nonan-2-yl]-N-[3-(4-cyano-3-methoxy-phenoxy)-2,2,4,4-tetramethyl-cyclobutyl]benzamide], the IC50 was more than 1000 nM in the assay with HEK-293 cells and not above 0.1 nM in the assay on VCaP cells. Also, in the assay with AR / CBP ternary complex, the EC50 is less than 1 nM.
